In PMC13077286, “Potentiation of the antimycobacterial activity of bedaquiline, clofazimine, and doxycycline against Mycobacterium smegmatis by several natural product-based compounds is putatively via efflux inhibition” (Open Research Africa, 2026):
Counter-ions that a name gives are not always drawn. Like-named read-outs stand apart in the source and are kept apart here.

What was measured:
[1] = system: Mycobacterium smegmatis (Msm) strain ATCC 607; assay: Two-dimensional checkerboard assay incorporating resazurin (REMA MIC) against Msm; format: cell-based; details: for MIC / MIC99: compound tested singly, read-out: MIC 99 singly; for MIC 99 fold reduction of anti-TB drug BDQ: BDQ in combination with the labelled EI; for MIC 99 fold reduction of anti-TB drug CFZ: CFZ in combination with the labelled EI; for MIC 99 fold reduction of anti-TB drug DOX: DOX in combination with the labelled EI; for FICI: synergy FICI ≤ 0.5
Vero E6 cells = assay: MTT cytotoxicity assay on Vero E6 cells; format: cell-based, African green monkey
Method: (§1) To determine the cytotoxicity of the compounds, Vero E6 cells (derived from the African green monkey kidney cells) were used and the MTT assay was performed as described by [Mosmann (1983)]. The Vero E6 cells were sourced from the American Type Culture Collection (ATCC, Manassas, Virginia, USA). The cells were maintained in Eagle’s Minimum Essential Medium (EMEM) supplemented with 10% fetal bovine serum (FBS; […] Panasonic, Japan) until 80% confluency was achieved, after which they were sub-cultured for cytotoxicity evaluation. At 80% confluency, cells were washed with phosphate-buffered saline (PBS; […] Trypsin activity was neutralized by adding supplemented EMEM. Cells were stained with trypan blue (Loba Chemie, India) and counted using a hemocytometer, and the cell suspensions were adjusted with supplemented EMEM to a final density of 1 × 10 ^5 cells/mL. […] After 24 hrs, the culture medium was replaced with fresh treatment medium with dose dilutions. […] After 48 hrs incubation, the media was removed, and the cells were rinsed with PBS (Sigma-Aldrich, USA). Fresh EMEM supplemented with MTT dye (5 mg […]/mL in PBS; Solarbio, China) was added and incubated for 4 hrs. The MTT solution was then discarded, and formazan crystals were completely dissolved with 100 μL of 100% DMSO (Finar Chemicals, India). Absorbance readings were taken at 570 nm using a microplate reader (Thermo Fisher Scientific, USA). All experiments were performed with three technical replicates. Cell viability (%) was determined using the formula: Cell viability(%)=[Absorbance of treated cells/Absorbance of untreated cells]×100 […]

[2] = MTT cytotoxicity assay on Vero E6 cells; format: cell-based, African green monkey; details: African green monkey
Method: as §1

[3] = Mycolicibacterium smegmatis, ATCC607, Msm
[4] = Msm, labelled EI in combination with BDQ
[5] = Msm, labelled EI in combination with CFZ
[6] = Vero E6 cells, 48 hrs exposure, MTT, read-out: CC 50
[7] = Msm, labelled EI in combination with DOX

| Compound | FIC (anti-TB drug) ([1]; Msm, in combination with BER) | MIC 99 combination (anti-TB drug) ([1]; Msm, in combination with BER) [µM] | MIC 99 combination (anti-TB drug) ([1]; Msm, in combination with LYO) [µM] | FIC (anti-TB drug) ([1]; Msm, in combination with LYO-3) | MIC 99 combination (anti-TB drug) ([1]; Msm, in combination with LYO-3) [µM] | FIC (anti-TB drug) ([1]; Msm, in combination with PIP) | MIC 99 combination (anti-TB drug) ([1]; Msm, in combination with PIP) [µM] | FIC (anti-TB drug) ([1]; Msm, in combination with RES) | MIC 99 combination (anti-TB drug) ([1]; Msm, in combination with RES) [µM] | MIC99 [1, 3] [µM] | MIC 99 fold reduction of anti-TB drug BDQ ([1]; Msm) [fold] | MIC 99 fold reduction of anti-TB drug DOX ([1]; Msm) [fold] | MIC 99 combination (EI) ([1]; Msm, in combination with BDQ) [µM] | MIC 99 combination (EI) ([1]; Msm, in combination with CFZ) [µM] | FIC (EI) ([1]; Msm, in combination with BDQ) | FIC (EI) ([1]; Msm, in combination with CFZ) | FIC (EI) ([1]; Msm, in combination with DOX) | MIC 99 combination (EI) ([1]; Msm, in combination with DOX) [µM] | FICI [1, 4] | FICI [1, 5] | further results |
| --- | --- | --- | --- | --- | --- | --- | --- | --- | --- | --- | --- | --- | --- | --- | --- | --- | --- | --- | --- | --- | --- |
| COc1nc2ccc(Br)cc2cc1[C@@H](c1ccccc1)[C@@](O)(CCN(C)C)c1cccc2ccccc12 [BDQ, bedaquiline fumarate] | 0.102 | 0.04 | 0.09 | 0.05 | 0.04 | 1 | 0.78 | 0.5 | 0.39 | 0.78 | – | – | – | – | – | – | – | – | – | – | MIC ([1]; Msm): 0.39 µM |
| CC(C)/N=c1\cc2n(-c3ccc(Cl)cc3)c3ccccc3nc-2cc1Nc1ccc(Cl)cc1 [CFZ, clofazimine] | 1 | 0.08 | 0.08 | 1 | 0.08 | 0.12 | 0.01 | 0.25 | 0.02 | 0.08 | – | – | – | – | – | – | – | – | – | – | FIC (anti-TB drug) ([1]; Msm, in combination with LYO): 1 |
| COC(=O)[C@H]1[C@H]2C[C@@H]3c4[nH]c5cc(OC)ccc5c4CCN3C[C@H]2C[C@@H](OC(=O)c2cc(OC)c(OC)c(OC)c2)[C@@H]1OC [RES, reserpine] | – | – | – | – | – | – | – | – | – | > 2240 | 2 | 32 | >2239.3 | >2239.3 | – | – | – | – | – | – | MIC 99 fold reduction of anti-TB drug CFZ ([1]; Msm): 4 fold; MIC [1, 3]: > 2240 µM; Cytotoxicity (in words) (Vero E6 cells): strong cytotoxicity at low micromolar concentrations |
| O=C(/C=C/C=C/c1ccc2c(c1)OCO2)N1CCCCC1 [PIP, piperine] | – | – | – | – | – | – | – | – | – | 120 | – | 16 | 119.99 | 29.99 | 1 | 0.25 | 0.25 | 29.99 | 2 | 0.37 | MIC 99 fold reduction of anti-TB drug CFZ ([1]; Msm): 8 fold; CC50 at 48 h [2, 6]: 92.5 µM |
| COc1cc(C2c3c(cc(OC)c(O)c3OC)CC(CO)C2CO)cc(OC)c1O (centres unmarked) [LYO, lyoniresinol] | – | – | – | – | – | – | – | – | – | 200 | 8 | 16 | 25 | 200 | 0.125 | 1 | 0.125 | 25 | 0.18 | 2 | FICI [1, 7]: 0.19; CC50 at 48 h [2, 6]: 318 µM |
| C[C@H]1c2cccc(O)c2C(=O)C2=C(O)[C@]3(O)C(=O)C(C(N)=O)=C(O)[C@@H](N(C)C)[C@@H]3[C@@H](O)[C@@H]21 [DOX, doxycycline hyclate] | 0.063 | 2.25 | 2.25 | 0.063 | 2.25 | 0.063 | 2.25 | 0.031 | 1.12 | 36 | – | – | – | – | – | – | – | – | – | – | FIC (anti-TB drug) ([1]; Msm, in combination with LYO): 0.063 |
| COc1ccc2cc3[n+](cc2c1OC)CCc1cc2c(cc1-3)OCO2 [BER, Berberine chloride] | – | – | – | – | – | – | – | – | – | 110 | 10 | 16 | 27.62 | 53.99 | 0.125 | – | – | 53.99 | 0.23 | 2 | FICI [1, 7]: 0.31; MIC [1, 3]: 221 µM; CC50 at 48 h [2]: 362 µM |
| COc1cc([C@H]2c3c(cc(OC)c(O)c3OC)C[C@@H](CO)[C@@H]2CO[C@@H]2O[C@H](CO)[C@@H](O)[C@H](O)[C@H]2O)cc(OC)c1O [LYO-3, (+)-lyoniresinol-3-Alpha-O-Beta-D-glucopyranoside] | – | – | – | – | – | – | – | – | – | 100 | 20 | 16 | 24.99 | 99.99 | 0.25 | 1 | 0.25 | 25 | 0.3 | 2 | FICI [1, 7]: 0.21; CC50 at 48 h [2, 6]: 604 µM; viability at 48 h ([2]; Vero E6 cells, even at higher concentrations, read-out: Cell viability): > 50% |
